Tests used:
[1] = tested on: B51 breast tumors; assay: Limiting dilution assay of cancer stem cell frequency, B51 breast tumors; assay type: in vivo, NOD-SCID mice; conditions: B51, paclitaxel
From the text: Limiting dilution assays (LDAs) can be used to assess the effect of a Notch-binding agent on solid tumor cancer stem cells and on the tumorigenicity of a tumor comprising the cancer stem cells. The assays can be sued to determine the frequency of cancer stem cells in tumors from animals treated with the Notch-binding agent or other agent and to compare that frequency to the frequency of cancer stem cells in tumors from control animals.
An LDA was used to assess the effect on the tumorigenicity of the B51 breast tumors that were treated with the combination of control antibody (1B711) plus paclitaxel (Taxol) or treated with the combination of 59R1 and paclitaxel, as described above in Example 7. In addition, the effect of treatment of B51 breast tumors with the control antibody alone or 59R1 alone was also determined by LDA. The doses of antibodies and paclitaxel and the schedule of dosing for the control antibody group and the 59R1 group were the same as described in Example 7, above for the other two treatment groups. After three doses of antibodies and/or paclitaxel, tumors were harvested, processed and dissociated into single cells. The human tumor cells were isolated from the xenograft tumor cells by incubation with biotinylated mouse antibodies (α-mouse CD45-biotin1:200 dilution and rat α-mouse H2 Kd-biotin1:100 dilution, BioLegend, San Diego, Calif.) on ice for 30 min, followed by addition of streptavidin-labeled magnetic beads and removal of the mouse cells with the aid of a magnet. The human cells in the suspension were harvested and counted.
A serial titration of cells (30, 90, 270, and 810 cells) from each of the four treatment groups was injected in a 1:1 (v/v) mixture of FACS buffer and Matrigel into a new set of NOD-SCID mice (n=10/group). Tumors were allowed to grow for 72 days. The percentage of mice with detectable tumors was determined in all groups. The cancer stem cell frequency was then calculated using L-Calc™ software (StemCell Technologies Inc.; downloadable from www.stemcell.com/search/default.asp).

[2] = tested on: PE13 breast tumors; assay: Microarray analysis of PE13 breast tumors treated with taxol or 59R1 plus taxol; assay type: in vivo, mice; conditions: PE13, Taxol vs. control
Experimental: In addition to investigating the effects of 59R1 in tumors and the effect on CSC frequency, gene changes were studied following 59R1 treatment in combination with taxol. The experiment was performed in PE13 breast tumors where a decrease in CSC frequency after treatment with 59R1 alone or 59R1 plus taxol treatment had previously been observed (and described herein). Microarray analysis was performed on tumors from the same experiment where limiting dilution analyses of PE13 were carried out for CSC quantification (FIG. 19). Animals bearing PE13 breast tumors were treated three weeks with 59R1 plus taxol, control and taxol prior to harvesting for microarray analysis. Mean differential expression values for taxol vs. control and 59R1 plus taxol vs. taxol treated animals (3 animals per group) were calculated.

SMILES: CC(=O)O[C@H]1C(=O)[C@@]2(C)[C@H]([C@H](OC(=O)c3ccccc3)[C@]3(O)C[C@H](OC(=O)[C@H](O)[C@@H](NC(=O)c4ccccc4)c4ccccc4)C(C)=C1C3(C)C)[C@]1(OC(C)=O)CO[C@@H]1C[C@@H]2O [Taxol, paclitaxel, reference compound]
- increase of frequency of cancer stem cells relative to the control [1]: more than two-fold
- Fold BMPR1B [2]: 10.2
- Fold BNIP3 [2]: −2.1
- Fold EGLN3 [2]: −21.1
- Fold HSPB6 [2]: 13.4
- Fold ITGAM [2]: 2.2
- Fold LHX8 [2]: 4.6
- Fold NDRG1 [2]: −9.0
- Fold RARRES1 [2]: 6.4
- Fold RARRES3 [2]: 2.6
- Fold RBP2 [2]: 4.8
- Fold XAF1 [2]: 10.6
